Consider 5 molecules from ChEMBL document CHEMBL5126637, “Discovery of Phenolic Matrix Metalloproteinase Inhibitors by Peptide Microarray for Osteosarcoma Treatment” (J Nat Prod, 2022).

Data set [1] addresses T1, Matrix metalloproteinase-9 (Homo sapiens, UniProt P14780). In words: Inhibition of MMP9 in human U2OS cells at 5 umol/L by peptide microarray-based fluorescence assay. The format is cell-based. The following applies: dose 5.0 µmol/L.
Data set [2] concerns U2OS. In words: Inhibition of cell migration of human U2OS cells at 2.5 umol/L incubated for 24 hrs by would healing assay. The format is functional, cell-based. The following applies: dose 2.5 µmol/L.
The nature of data set [3]: Toxicity in human MDA-MB-231 cells assessed as cell viability at 2.5 umol/L incubated for 24 hrs by MTT assay relative to control. It is filed as cell-based. The following applies: dose 2.5 µmol/L, read-out: Activity. A general note: Formazan colour is commonly taken as a measure of viable cells.
For data set [4], the system named is U2OS. In words: Antitumor activity against human U2OS cells xenografted in NOD/SCID mouse assessed as inhibition of growth of both primary and metastatic tumors at 30 ug, iv dosed once every 2 days for 6 days successively relative to control. The format is functional, organism-based. The following applies: dose 30.0 µg, time 6.0 day. In general terms: Xenograft models place foreign cells or tissue in a host animal.

For data set [5], the target named is T1, Matrix metalloproteinase-9. In words: Inhibition of MMP9 in human U2OS cells by peptide microarray-based fluorescence assay. It is filed as cell-based.
Data set [6] can be described thus: Toxicity in human MCF7 cells assessed as cell viability at 2.5 umol/L incubated for 24 hrs by MTT assay relative to control. The format is cell-based. The following applies: dose 2.5 µmol/L, read-out: Activity.
The nature of data set [7]: Toxicity in Kunming mouse assessed as induction of adverse effect or tissue damage in major organs measured after 14 days. The following applies: in vivo, 336 h, time 14 day.
A short description of data set [8]: Toxicity in human NCM460 cells assessed as cell viability at 2.5 umol/L incubated for 24 hrs by MTT assay relative to control. It is filed as cell-based. The following applies: dose 2.5 µmol/L, read-out: Activity.
Data set [9] in a line: Toxicity in human HEK293T cells assessed as cell viability at 2.5 umol/L incubated for 24 hrs by MTT assay relative to control. It is filed as cell-based, HEK-293T. The following applies: dose 2.5 µmol/L, read-out: Activity.
The nature of data set [10]: Toxicity in Kunming mouse assessed as effect on body weight changes measured after 14 days. The following applies: in vivo, 336 h, time 14 day.
For data set [11], the target named is T2, Interstitial collagenase (Homo sapiens) (UniProt P03956).
T2 sequence (whole entry): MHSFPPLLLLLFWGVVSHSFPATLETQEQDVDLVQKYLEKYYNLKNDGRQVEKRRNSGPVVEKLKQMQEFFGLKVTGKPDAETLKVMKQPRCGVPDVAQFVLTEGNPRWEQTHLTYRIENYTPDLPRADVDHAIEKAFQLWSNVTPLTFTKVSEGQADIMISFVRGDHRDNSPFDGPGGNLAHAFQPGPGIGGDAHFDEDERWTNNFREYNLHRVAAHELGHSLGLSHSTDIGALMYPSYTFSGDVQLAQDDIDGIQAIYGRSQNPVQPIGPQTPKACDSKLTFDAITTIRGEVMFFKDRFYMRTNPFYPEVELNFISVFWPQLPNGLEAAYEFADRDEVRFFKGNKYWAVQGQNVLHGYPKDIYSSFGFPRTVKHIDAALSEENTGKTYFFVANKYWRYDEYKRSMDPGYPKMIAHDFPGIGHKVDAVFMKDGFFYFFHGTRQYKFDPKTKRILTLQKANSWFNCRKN
In words: Inhibition of MMP1 in human U2OS cells at 5 umol/L by peptide microarray-based fluorescence assay. The format is cell-based. The following applies: dose 5.0 µmol/L.

For data set [12], the target named is T2, Interstitial collagenase (Homo sapiens). In words: Inhibition of MMP1 in human U2OS cells at 1 umol/L by peptide microarray-based fluorescence assay. The following applies: dose 1.0 µmol/L. It is filed as cell-based.
In data set [13] the test system is U2OS. In words: Antitumor activity against human U2OS cells xenografted in NOD/SCID mouse assessed as inhibition of distant organ metastasis at 30 ug, iv dosed once every 2 days for 6 days successively relative to control. It is filed as functional, organism-based. The following applies: dose 30.0 µg.
A short description of data set [14]: Toxicity in human HCT-116 cells assessed as cell viability at 2.5 umol/L incubated for 24 hrs by MTT assay relative to control. It is filed as cell-based. The following applies: dose 2.5 µmol/L, read-out: Activity.
The target in data set [15] is T1, Matrix metalloproteinase-9. In words: Inhibition of MMP9 in human U2OS cells at 1 umol/L by peptide microarray-based fluorescence assay. The format is cell-based. The following applies: dose 1.0 µmol/L.
Data set [16] is described as follows: Toxicity in human U2OS cells assessed as cell viability at 2.5 umol/L incubated for 24 hrs by MTT assay relative to control. It is filed as cell-based. The following applies: dose 2.5 µmol/L, read-out: Activity.
A short description of data set [17]: Toxicity in human HL7702 cells assessed as cell viability at 2.5 umol/L incubated for 24 hrs by MTT assay relative to control. It is filed as cell-based, L02. The following applies: dose 2.5 µmol/L, read-out: Activity.
The nature of data set [18]: Toxicity in Kunming mouse assessed as effect on blood components measured after 14 days. The following applies: in vivo, 336 h, time 14 day.
Data set [19] has as its system U2OS. In words: Antitumor activity against human U2OS cells xenografted in NOD/SCID mouse assessed as time duration with 100% survival with at 30 ug, iv dosed once every 2 days for 6 days successively relative to control. The following applies: dose 30 µg, time 6 day. The format is functional.
The subject of data set [20] is U2OS. In words: Antitumor activity against human U2OS cells xenografted in NOD/SCID mouse assessed as inhibition of tumor growth at 30 ug, iv dosed once every 2 days for 6 days successively relative to control. The format is functional. The following applies: dose 30 µg, time 6 day.
The target in data set [21] is 72 kDa type IV collagenase (Homo sapiens, UniProt P08253). In words: Inhibition of MMP2 in human U2OS cells at 5 umol/L by peptide microarray-based fluorescence assay. It is filed as cell-based. The following applies: dose 5.0 µmol/L.
Sequence of 72 kDa type IV collagenase (P08253 110-660 limits assumed): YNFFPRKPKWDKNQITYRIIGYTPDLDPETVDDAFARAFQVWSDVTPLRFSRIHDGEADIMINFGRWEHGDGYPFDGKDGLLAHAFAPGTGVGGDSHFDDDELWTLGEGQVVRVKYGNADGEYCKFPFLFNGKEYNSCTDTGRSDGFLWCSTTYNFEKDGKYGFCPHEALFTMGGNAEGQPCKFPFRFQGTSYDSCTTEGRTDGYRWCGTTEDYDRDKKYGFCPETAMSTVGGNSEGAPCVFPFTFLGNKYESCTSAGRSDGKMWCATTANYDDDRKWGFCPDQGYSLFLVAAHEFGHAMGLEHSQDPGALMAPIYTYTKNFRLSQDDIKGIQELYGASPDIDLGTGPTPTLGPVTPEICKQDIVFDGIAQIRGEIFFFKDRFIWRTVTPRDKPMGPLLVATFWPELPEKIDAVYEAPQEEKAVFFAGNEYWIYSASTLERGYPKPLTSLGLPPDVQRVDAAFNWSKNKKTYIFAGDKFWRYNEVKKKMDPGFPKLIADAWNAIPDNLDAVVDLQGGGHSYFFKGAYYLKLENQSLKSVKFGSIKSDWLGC
The target in data set [22] is T3, Matrilysin (Homo sapiens) (UniProt P09237).
T3 sequence (whole entry): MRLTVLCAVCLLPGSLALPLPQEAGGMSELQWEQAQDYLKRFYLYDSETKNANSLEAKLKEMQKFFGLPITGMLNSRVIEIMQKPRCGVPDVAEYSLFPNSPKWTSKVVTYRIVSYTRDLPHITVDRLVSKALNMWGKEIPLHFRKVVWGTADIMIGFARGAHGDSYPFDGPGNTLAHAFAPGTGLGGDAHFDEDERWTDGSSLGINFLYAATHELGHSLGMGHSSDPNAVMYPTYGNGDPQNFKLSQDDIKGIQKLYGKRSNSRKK
In words: Inhibition of MMP7 in human U2OS cells at 5 umol/L by peptide microarray-based fluorescence assay. It is filed as cell-based. The following applies: dose 5.0 µmol/L.

A further data set deals with Collagenase 3 (Homo sapiens, UniProt P45452). In words: Inhibition of MMP13 in human U2OS cells at 5 umol/L by peptide microarray-based fluorescence assay. It is filed as cell-based. The following applies: dose 5.0 µmol/L.
The next data set concerns the target Stromelysin-1 (Homo sapiens, UniProt P08254). In words: Inhibition of MMP3 in human U2OS cells at 5 umol/L by peptide microarray-based fluorescence assay. It is filed as cell-based. The following applies: dose 5.0 µmol/L.

Active and inactive are the calls of the source. The calls are words filed in the database; no cut-off is given here.

T1 sequence (P14780 whole entry): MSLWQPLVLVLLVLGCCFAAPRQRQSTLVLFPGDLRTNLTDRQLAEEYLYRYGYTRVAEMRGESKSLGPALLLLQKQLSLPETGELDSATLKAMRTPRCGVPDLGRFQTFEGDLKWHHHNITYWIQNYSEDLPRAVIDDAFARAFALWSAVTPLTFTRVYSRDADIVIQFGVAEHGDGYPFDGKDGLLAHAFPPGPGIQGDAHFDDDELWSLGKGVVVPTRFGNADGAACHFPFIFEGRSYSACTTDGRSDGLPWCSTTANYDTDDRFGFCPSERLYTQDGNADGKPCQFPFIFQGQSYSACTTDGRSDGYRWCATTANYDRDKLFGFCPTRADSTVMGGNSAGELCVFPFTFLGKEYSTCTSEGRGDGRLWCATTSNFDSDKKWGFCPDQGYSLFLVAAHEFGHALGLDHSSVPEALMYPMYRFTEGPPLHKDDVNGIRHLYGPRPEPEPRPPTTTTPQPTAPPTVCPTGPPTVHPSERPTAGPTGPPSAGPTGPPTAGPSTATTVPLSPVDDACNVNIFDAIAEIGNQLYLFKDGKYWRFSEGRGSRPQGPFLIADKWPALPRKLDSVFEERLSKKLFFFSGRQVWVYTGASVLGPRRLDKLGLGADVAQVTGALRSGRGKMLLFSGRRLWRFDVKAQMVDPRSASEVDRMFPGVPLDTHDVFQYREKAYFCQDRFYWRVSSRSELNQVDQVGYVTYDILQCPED
Sequence of Stromelysin-1 (P08254 100-477 limits assumed): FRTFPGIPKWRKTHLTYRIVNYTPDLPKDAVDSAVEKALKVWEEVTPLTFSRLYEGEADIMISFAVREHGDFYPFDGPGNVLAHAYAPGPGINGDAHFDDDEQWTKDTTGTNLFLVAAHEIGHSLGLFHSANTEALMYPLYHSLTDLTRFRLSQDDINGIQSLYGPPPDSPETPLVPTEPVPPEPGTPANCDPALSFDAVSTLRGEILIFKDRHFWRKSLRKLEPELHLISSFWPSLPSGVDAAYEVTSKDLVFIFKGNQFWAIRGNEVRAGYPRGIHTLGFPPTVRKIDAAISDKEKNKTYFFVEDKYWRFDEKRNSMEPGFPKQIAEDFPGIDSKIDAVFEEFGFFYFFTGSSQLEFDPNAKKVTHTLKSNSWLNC

Consider `O=c1c2cc(O)c(O)cc2oc2cc(O)c([C@@H]3O[C@H](CO)[C@@H](O)[C@H](O)[C@H]3O)c(O)c12` [MANGIFERIN], for which the inhibition in data set [1] and in data set [11] was greater than 50% throughout. Besides, the inhibition result (with U2OS [2]; in the data set on U2OS [4]; in data set [12]; with U2OS [13]; in data set [15]) was “Active” in each case. Further, the viability at 24 h, 2.5 µM in [3], in [6], in data set [8], in [9], in data set [14] and in data set [16] was greater than 90% in each case. In [17], the viability at 24 h, 2.5 µM was greater than 90%. Besides, in data set [5], it took 250 nM to reach half-maximal inhibition (IC50). Moreover, the Activity result in [7], in data set [10] and in data set [18] was “Non-Toxic” in each case. Also, the Survival in the data set on U2OS [19] was determined as 41 days. The TGI – broadly, the reduction of tumour growth relative to the control group – with U2OS [20] stood at 35%.
Consider `C=CC(C)(C)c1cc(/C=C/C(=O)c2ccc(O)cc2)c(OC)cc1O`, for which, in data set [11], the inhibition – broadly, the drop in the measured response relative to a control, in per cent – is greater than 50%.
In turn, `COc1ccc(-c2coc3cc(O[C@@H]4O[C@H](CO)[C@@H](O)[C@H](O)[C@H]4O)ccc3c2=O)cc1` registered an inhibition in [1] greater than 50%.
As to `COc1ccc(-c2cc(=O)c3c(OC)c(OC)c(OC)cc3o2)cc1OC`, the inhibition (in [21]; in data set [11]; in data set [22]; against Collagenase 3; on Stromelysin-1) was greater than 50% each time.
Take `O=C1C[C@@H](c2ccc(O)cc2)Oc2cc(O)ccc21`: the inhibition (in data set [1]; in [21]; in data set [11]; in data set [22]; at Collagenase 3; on Stromelysin-1) was greater than 50% throughout.
